Assays:
[1] = molecular target: T1, 5-lipoxygenase (Rattus norvegicus, UniProt P12527); assay: ARBL whole cell 5-lipoxygenase assay (inhibition of LTB4 formation in RBL-1 cells); assay type: cell-based; conditions: RBL-1 whole cells; 50% inhibition of LTB4 formation; calcium ionophore A23187 (5 μM); RIA
T1 construct: host or cells: RBL-1 (rat basophilic leukemia)
T1 sequence (P12527 1-673): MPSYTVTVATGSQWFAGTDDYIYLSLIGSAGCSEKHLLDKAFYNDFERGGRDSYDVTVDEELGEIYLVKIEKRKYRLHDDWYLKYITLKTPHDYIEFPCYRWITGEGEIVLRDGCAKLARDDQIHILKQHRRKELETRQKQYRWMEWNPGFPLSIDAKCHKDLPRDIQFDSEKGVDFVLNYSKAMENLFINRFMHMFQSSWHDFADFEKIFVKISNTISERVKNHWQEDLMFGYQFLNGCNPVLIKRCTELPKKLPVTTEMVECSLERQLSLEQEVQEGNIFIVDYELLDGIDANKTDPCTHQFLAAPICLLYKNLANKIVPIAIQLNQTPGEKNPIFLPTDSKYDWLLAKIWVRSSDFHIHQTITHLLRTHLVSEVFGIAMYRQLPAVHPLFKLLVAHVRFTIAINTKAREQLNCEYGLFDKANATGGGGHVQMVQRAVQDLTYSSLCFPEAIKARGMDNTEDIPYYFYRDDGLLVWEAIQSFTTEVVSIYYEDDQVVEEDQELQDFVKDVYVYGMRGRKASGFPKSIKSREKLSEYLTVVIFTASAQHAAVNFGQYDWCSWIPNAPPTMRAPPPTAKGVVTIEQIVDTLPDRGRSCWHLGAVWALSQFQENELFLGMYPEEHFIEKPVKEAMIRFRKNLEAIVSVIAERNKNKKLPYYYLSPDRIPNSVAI
Protocol: (§1) ARBL/ARBC WHOLE CELL 5-LIPOXYGENASE AND CYCLOOXYGENASE ASSAYS The rat basophilic leukemia cell line (RBL-1) was obtained from the American Type Culture Collection (Rockville, Md.). Radioimmunoassay (RIA) kits of LTB4 and PGF2α were obtained from Amersham (Arlington Heights, Ill.) and Seragen (Boston, Mass.), respectively. RBL-1 cells are grown in suspension culture in Eagle's minimum essential medium supplemented with 12% fetal bovine serum at 37° C. in an incubator supplied with air-5% carbon dioxide. Cells are harvested by centrifugation. They are washed with cold phosphate buffered saline pH 7.4 (PBS; NaCl, 7.1 g; NaHPO, 1.15 g; KHPO, 0.2 g; and KCl, 0.2 g/l). Cells are finally suspended in PBS containing 1.0 mM calcium at a density of […] cells/ml. Cells are incubated with and without test agent (in DMSO) (1% DMSO is without effect on arachidonic acid metabolism) for ten minutes at room temperature. Calcium ionophore A23187 (5 μM) is added and cells are incubated for seven minutes at 37° C. The reaction is stopped by chilling the tubes on ice for ten minutes. Cells are separated by centrifugation and the supernatant is stored at -20°. Aliquots (100 μL) are analyzed for LTB4 and PGF2α using radioimmunoassay kits as provided by the supplier. […]

[2] = test system: cyclooxygenase; assay: ARBC whole cell cyclooxygenase assay (inhibition of PGF2α formation in RBL-1 cells); assay type: cell-based, rat; conditions: RBL-1 whole cells; 50% inhibition of PGF2α formation; calcium ionophore A23187 (5 μM); RIA
Protocol: as §1

IC50 [1]: 1180 nM
IC50 [2]: 1350 nM
SMILES: CON(C)C(=O)c1nc(C(C)(C)C)c(O)c(C(C)(C)C)n1 [Example 1, 4,6-Bis(1,1-dimethylethyl)-5-hydroxy-N-methoxy-N-methyl-2-pyrimidinecarboxamide]
